According to patent US20220273637A1, “NOVEL PFAR-INHIBITING COMPOUNDS” (UNIVERSITE DE BRETAGNE OCCIDENTALE (UBO), priority 2019, published 2022):

Each molecule was assayed on PFAR (protein folding activity of ribosome) (assay: Inhibition of PFAR in yeast cells (LuxAB luciferase refolding after heat shock)). Settings: not given.
Format: cell-based
In the case of `c1ccc(CN(CC2=NCCN2)c2ccccc2)cc1` [antazoline], the “inhibition of PFAR” value is reported as “do not inhibit PFAR”. `CN1C(=O)CN=C(c2ccccc2)c2cc(Cl)ccc21` [diazepam] was tested, and the “inhibition of PFAR” value was “do not inhibit PFAR”.

Each molecule was assayed on PABPN1 aggregates (assay: not given). Settings: not given.
Format: cell-based, murine
With `CNCC[C@H](Oc1cccc2ccccc12)c1cccs1` [duloxetine] the “nuclei having aggregates of the PABPN1 protein” value (“nuclei having aggregates” for short) was “reduce the amount of muscle cell nuclei containing PABPN1 aggregates”. For `CSc1ccc2c(c1)N(CCC1CCCCN1C)c1ccccc1S2` (centres unmarked) [thioridazine], the “nuclei having aggregates” value was “reduce the amount of muscle cell nuclei containing PABPN1 aggregates”. With `CN(C)CCCN1c2ccccc2Sc2ccc(C(F)(F)F)cc21` [triflupromazine] the “nuclei having aggregates” value was “negative”. With `CN1C(=O)CN=C(c2ccccc2)c2cc(Cl)ccc21` [diazepam] the “nuclei having aggregates” value was “negative”. For `CC(C)(C)c1ccc(C(=O)CCCN2CCC(OC(c3ccccc3)c3ccccc3)CC2)cc1` [ebastine], the “nuclei having aggregates” value was “reduce the amount of muscle cell nuclei containing PABPN1 aggregates”. In the case of `CN(C)C(=O)C(CCN1CCC(O)(c2ccc(Cl)cc2)CC1)(c1ccccc1)c1ccccc1` [loperamide], the “nuclei having aggregates” value is reported as “reduce the amount of muscle cell nuclei containing PABPN1 aggregates”. With `CN1CCCC(n2nc(Cc3ccc(Cl)cc3)c3ccccc3c2=O)CC1` (centres unmarked) [azelastine] the “nuclei having aggregates” value was “reduce the amount of muscle cell nuclei containing PABPN1 aggregates”. For `COc1ccc(CCN2CCC(Nc3nc4ccccc4n3Cc3ccc(F)cc3)CC2)cc1` [astemizole], the “nuclei having aggregates” value was “reduce the amount of muscle cell nuclei containing PABPN1 aggregates”. `CN1CCC[C@@H]1CCO[C@](C)(c1ccccc1)c1ccc(Cl)cc1` [clemastine] was tested, and the “nuclei having aggregates” value was “negative”. With `CN1CCCC(CC2c3ccccc3Sc3ccccc32)C1` (centres unmarked) [metixene] the “activity compared with guanabenz (positive control)” value was “more active than guanabenz” and the “nuclei having aggregates” value was “reduce the amount of muscle cell nuclei containing PABPN1 aggregates”.

Each molecule was assayed on Drosophila expressing PABPN1-17ala (assay: Drosophila model of OPMD (PABPN1-17ala): abnormal wing position). Settings: 2 mM in food, day 3 to day 6, chi-squared test.
Format: in vivo
Description: The model used is a fruit fly model for OPMD in which the mammalian protein PABPN1 with a repetition of 17 alanines (PABPN1-17a1a) is specifically expressed in the muscles of Drosophila (Chartier et al. 2006; Chartier et al. 2015). These models reproduce the characteristics of the disease, i.e. weakness and progressive muscular degeneration, and also the formation of nuclear PABPN1 aggregates. Thus, the expression of PABPN1-17ala in the indirect wing muscles leads to an abnormal wing posture, resulting from the disorder of the muscle function and degeneration of the muscles (Chartier et al. 2006). […]
The compounds were administered in the food, prepared as follows: an instant Drosophila medium (Carolina Biological Supply Company) was reconstituted in each tube with a 1% solution of yeast in water, supplemented by the compounds dissolved in DMSO with an increasing concentration, or with DMSO alone. […] The effect of the compounds was quantified by the daily measurement of the number of flies presenting an abnormal wing posture, corresponding to the flies expressing PABPN1-17ala, from day 3 to day 6 of the adult age: groups of five males per condition are placed in an empty tube and the number of males having an abnormal wing position is recorded by direct observation of the flies in the tube, without anesthesia.
`CN1CCCC(CC2c3ccccc3Sc3ccccc32)C1` (centres unmarked) [metixene] was tested, and the “number of flies presenting an abnormal wing posture relative to DMSO” value was “significant reduction”.
